The text below walks through data of PMC10901556, “Conservation of Affinity Rather Than Sequence Underlies a Dynamic Evolution of the Motif-Mediated p53/MDM2 Interaction in Ray-Finned Fishes” (Molecular Biology and Evolution, 2024).

Common to all, as to format: binding
One experiment deals with T1, D. rerio MDM2 (Danio rerio, UniProt O42354).
T1 construct: NusA-TEV-His6-PreScission site (N, cleaved yes); made in house; host or cells: Escherichia coli BL21 (DE3)
T1 sequence (O42354 with tags, fused parts or gaps): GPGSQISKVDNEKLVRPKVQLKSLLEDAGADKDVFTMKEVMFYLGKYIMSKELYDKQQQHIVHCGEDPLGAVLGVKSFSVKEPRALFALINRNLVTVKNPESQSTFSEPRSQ
In words: Isothermal titration calorimetry. Particulars: 25 °C; for TΔS / ΔH / Kd: ITC. As to the method: For ITC experiments, a MicroCal iTC200 instrument (GE Healthcare) was used, and the experiments were performed at 25 °C. The MDM2 protein and p53TAD peptides were dialyzed against the experimental buffer prior to experiments to avoid buffer mismatch. The concentration of D. rerio MDM2 in the cell was 11 μM and the concentration of p53TADD.rerio^17–32 and p53TADD.rerio^10–75 in the syringe was 118 and 116 μM, respectively. Results were analyzed using the built-in software and a 2-state binding model was assumed.
A general note: Isothermal titration calorimetry measures the heat released or taken up as one component is titrated into another.

In experiment [1] the target is T2, MDM2H.sapiens SWIB domain (Homo sapiens, UniProt Q00987).
T2 construct: NusA-TEV-His6-PreScission (N, cleaved yes); made in house; host or cells: Escherichia coli BL21 (DE3)
T2 sequence (Q00987 with tags, fused parts or gaps): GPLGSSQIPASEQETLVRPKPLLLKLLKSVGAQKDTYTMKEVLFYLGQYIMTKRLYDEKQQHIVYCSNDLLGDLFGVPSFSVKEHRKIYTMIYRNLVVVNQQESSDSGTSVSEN
The experiment can be described thus: Fluorescence polarization displacement assay. (In general: Fluorescence polarisation rises when a labelled molecule tumbles more slowly, as on binding a larger partner.)

The next experiment addresses T3, MDM2D.rerio SWIB domain (Danio rerio, UniProt O42354).
T3 construct: NusA-TEV-His6-PreScission (N, cleaved yes); made in house; host or cells: Escherichia coli BL21 (DE3)
T3 sequence (O42354 with tags, fused parts or gaps): T1 sequence (O42354 with tags, fused parts or gaps)
In words: Fluorescence polarization displacement assay.

In experiment [2] the target is MDM2 SWIB domain, Lepisosteus oculatus. In words: Fluorescence polarization displacement assay.
Chain of MDM2 SWIB domain, Lepisosteus oculatus (as listed by the source): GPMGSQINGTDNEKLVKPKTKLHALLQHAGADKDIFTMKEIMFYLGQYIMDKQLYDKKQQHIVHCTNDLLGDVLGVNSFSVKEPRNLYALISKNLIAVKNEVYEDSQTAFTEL
For experiment [3], the target named is MDM2 SWIB domain, Maylandia zebra. The experiment can be described thus: Fluorescence polarization displacement assay. Particulars: for IC50 / Ki: M.zeb MDM2 2000 nM.
Chain of MDM2 SWIB domain, Maylandia zebra (as listed by the source): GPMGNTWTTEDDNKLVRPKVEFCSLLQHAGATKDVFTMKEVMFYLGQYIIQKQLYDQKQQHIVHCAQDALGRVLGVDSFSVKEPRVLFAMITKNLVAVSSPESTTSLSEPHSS
Experiment [4] deals with MDM2 SWIB domain, Takifugu rubripes. In words: Fluorescence polarization displacement assay. The settings on record: for IC50 / Ki: T.rub MDM2 1500 nM.
Chain of MDM2 SWIB domain, Takifugu rubripes (as listed by the source): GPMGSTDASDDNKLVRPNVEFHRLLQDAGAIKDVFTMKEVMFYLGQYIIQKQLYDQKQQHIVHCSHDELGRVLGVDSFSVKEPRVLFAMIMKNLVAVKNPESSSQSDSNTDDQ
For experiment [5], the target named is MDM2 SWIB domain, Channa argus. The experiment can be described thus: Fluorescence polarization displacement assay. Particulars: for IC50 / Ki: C.arg MDM2 1500 nM.
Chain of MDM2 SWIB domain, Channa argus (as listed by the source): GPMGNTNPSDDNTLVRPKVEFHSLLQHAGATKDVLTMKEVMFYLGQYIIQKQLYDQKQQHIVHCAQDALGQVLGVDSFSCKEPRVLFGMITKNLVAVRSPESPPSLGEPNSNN
[6] abbreviates: labeled probe 15 nM, replicate 1, read-out: IC50 [M] (IT).
Where [7] appears, read: labeled probe 15 nM, replicate 3, read-out: IC50 [M] (IT).
Setting [8] is: average of the replicates, probe 15 nM, Kd for probe […], read-out: Ki [nM] Average.
Setting [9] is: average of the replicates, probe 15 nM, Kd for probe […], read-out: Ki [µM] Average.
The mark [10] stands for this setting: calculated from IC50, Kd for probe […], probe 15 nM, replicate 1, read-out: Ki.
The mark [11] stands for this setting: calculated from IC50, Kd for probe […], probe 15 nM, replicate 2, read-out: Ki.
[12] abbreviates: calculated from IC50, Kd for probe […], probe 15 nM, replicate 3, read-out: Ki.
Where [13] appears, read: mean of the replicates, probe 15 nM, read-out: IC50 [nM], mean of the replicates.
Setting [14] is: labeled probe 15 nM, replicate 2, read-out: IC50.

Values joined by “and” are separate entries in the source; they are usually repeats but may differ in a detail not shown here. Equal entries are not always repeated. Where two headings read alike, the source gives them in different places. Where no end group is shown, it is not given here.

As for “Ac-EFAELWEKNLISIQP (N-terminus assumed) [D.rer p53 17-32 (G1K]”, at D. rerio MDM2 (first replicate), the “N (ITC stoichiometry)” value was 0.74±0.01, the TΔS was determined as 1.7 kcal/mol and the ΔH was -7.2 ± 0.1 kcal/mol. In addition, at D. rerio MDM2 (second replicate), the “N (ITC stoichiometry)” value was 0.76±0.01, the TΔS is on record as 1.2 kcal/mol and the ΔH was -7.6 ± 0.1 kcal/mol.
A word on the IC50: it is the concentration that gives 50% inhibition. The term Ki denotes the dissociation constant of the complex between target and ligand, obtained from inhibition or displacement. What is called Kd is the equilibrium constant for the complex coming apart. In experiment [1], Ac-SQEFAELWEKNL [D.rer p53 P2 short] showed a concentration for half-maximal inhibition (IC50) of 31800 nM and a Ki of 4330 nM. At MDM2D.rerio SWIB domain, this substance yielded a half-maximal inhibitory concentration (IC50) of 3.39e-05 M and a Kd of 3600 ± 300 nM.
On to “GPMGMADPEPEGLPLSQESFQELWNMVIVLHRAVPPENAQWPDLQSMLYTNELVPNAIDSLYEELEPHVSMPPQPMVSNPDGLAPSSST [L.ocu p53 full, expressed full-length spotted gar p53TAD]”, for which the Kd in experiment [2] (FP displacement of FITC-p53TADhuman^15–26 (15 nM) from MDM2 (1 μM), KD from IC50, 20 mM sodium phosphate pH 7.4, 150 mM NaCl, 1 mM TCEP) was 85 ± 5 nM. In addition, the 50% inhibitory concentration (IC50) in experiment [2] (equals the mean of the replicates, read-out: IC50 [nM], mean) is 2090 nM; in experiment [2] (replicate 1, MDM2 1000 nM, labeled probe 15 nM, read-out: IC50 [M] (IT)), 2170 nM; in experiment [2] (replicate 2, MDM2 1000 nM, labeled probe 15 nM, read-out: IC50 [M] (IT)), 2140 nM; in experiment [2] (replicate 3, MDM2 1000 nM, labeled probe 15 nM, read-out: IC50 [M] (IT)), 1960 nM. In addition, the Ki in experiment [2] (mean of the replicates (n = 3 or 6), read-out: Ki [nM] Average) is 84.7 nM; in experiment [2] (mean of the replicates (n = 3 or 6), read-out: Ki [µM] Average), 84.7 nM; in experiment [2] (replicate 1, calculated from IC50 with Kd for probe 78 nM, read-out: Ki) it was 90.7 nM; in experiment [2] (replicate 2, calculated from IC50 with Kd for probe 78 nM, read-out: Ki) it was 88.6 nM; in experiment [2] (replicate 3, calculated from IC50 with Kd for probe 78 nM, read-out: Ki), 74.9 nM.
With “GPMGMAEQGFEDLQLSQNLPFSQDSFKELWDQLPVAESLSVSLDTISAVNSSTTGHDETWRPDGTMDMFQLINDQQLAEHFDEKLFELPNDALPKDGVTPPAST [M.zeb p53 P1 full, expressed full-length zebra mbuna p53TAD paralog 1]”, the equilibrium dissociation constant (Kd) in experiment [3] (FP displacement of FITC-p53TADhuman^15–26 (15 nM) from MDM2 (2 μM), KD from IC50, 20 mM sodium phosphate pH 7.4, 150 mM NaCl, 1 mM TCEP) is 190 ± 20 nM. Further, the IC50 in experiment [3] (setting [6]) came to 3.27e-06 M; in experiment [3] (labeled probe 15 nM, replicate 2, read-out: IC50 [M] (IT)), 3.18e-06 M; in experiment [3] (setting [7]) it was 2.72e-06 M; in experiment [3] (setting [13]), 3.06e-06 M. The inhibitory constant (Ki) in experiment [3] (setting [8]) is 188 nM; in experiment [3] (setting [9]), 190 nM; in experiment [3] (setting [10]), 218 nM; in experiment [3] (setting [11]), 206 nM; in experiment [3] (setting [12]), 140 nM.
Turning to “GPMGMAQNDSQEFAELWEKNLISIQPPGGGSCWDIINDEEYLPGSFDPNFFGNVLEEQPQPSTLPPTST* [D.rer p53 P2 full, expressed whole TAD region of D. rerio p53]”, the Kd is 49 ± 8 nM at MDM2D.rerio SWIB domain (FP displacement of FITC-p53TADhuman^15–26 (15 nM) from MDM2 (1 μM or 1.5 μM, both printed), KD from IC50, 20 mM sodium phosphate pH 7.4, 150 mM NaCl, 1 mM TCEP, read-out: KD); 49 nM at MDM2D.rerio SWIB domain (FP displacement, printed in nM (text, Fig. S4A), read-out: KD); about 100 nM on D. rerio MDM2 (MDM2 11 μM in the cell, approximate value); 100 ± 20 nM at D. rerio MDM2 (one of two replicates, the first printed for this construct in Fig. S5 (replicate number not assignable)); 100 ± 10 nM on D. rerio MDM2 (one of two replicates, the second printed for this construct in Fig. S5 (replicate number not assignable)). In addition, the “fold higher affinity than p53TAD^15–27D.rerio” value at MDM2D.rerio SWIB domain (ratio of KD values, FP displacement) is listed as “more than 70 fold”. Moreover, the IC50 at MDM2D.rerio SWIB domain (read-out: IC50 [M] (IT)) is 1.73e-06 M and 1.93e-06 M and 1.69e-06 M; on MDM2D.rerio SWIB domain (read-out: IC50 [nM], mean of the replicates (cell without heading below the column)), 1.78e-06 M. The inhibition constant (Ki) was 42.6 nM and 65.1 nM and 39.2 nM on MDM2D.rerio SWIB domain (read-out: Ki); 49 nM on MDM2D.rerio SWIB domain (read-out: Ki [nM] Average); 49 nM on MDM2D.rerio SWIB domain (read-out: Ki [µM] Average). Also, the figures for the “N (ITC stoichiometry)” value at D. rerio MDM2 (first replicate) and at D. rerio MDM2 (second replicate) were 0.79±0.01 and 0.74±0.01, respectively. For the same substance, the TΔS at D. rerio MDM2 (first replicate) came to 1.7 kcal/mol; at D. rerio MDM2 (second replicate), 2.0 kcal/mol. In addition, the figures for the ΔH on D. rerio MDM2 (first replicate) and on D. rerio MDM2 (second replicate) were -7.8 ± 0.1 kcal/mol and -7.6 ± 0.1 kcal/mol, respectively.
“GPMGMEDEGFSLPLSQDTFQDLWENVAAPSIVTIPTTSLENEQWHQELLMNYPELPFNEELFNLPSEMASKDSANLSTPT [T.rub p53 P1 full, expressed full-length Japanese puffer p53TAD paralog 1]”: the Kd in experiment [4] (FP displacement of FITC-p53TADhuman^15–26 (15 nM) from MDM2, KD from IC50, 20 mM sodium phosphate pH 7.4, 150 mM NaCl, 1 mM TCEP) was 470 ± 30 nM. For the same substance, the IC50 in experiment [4] (setting [6]) is 4.93e-06 M; in experiment [4] (setting [14]) it was 4.16e-06 M; in experiment [4] (setting [7]) it was 4.19e-06 M; in experiment [4] (labeled probe 15 nM, replicate 4, read-out: IC50 [M] (IT)), 3.43e-06 M; in experiment [4] (labeled probe 15 nM, replicate 5, read-out: IC50 [M] (IT)), 4.05e-06 M; in experiment [4] (labeled probe 15 nM, replicate 6, read-out: IC50 [M] (IT)), 4.53e-06 M. Moreover, the concentration for half-maximal inhibition (IC50) in experiment [4] (setting [13]) stood at 4.21e-06 M. For the same substance, the inhibition constant (Ki) in experiment [4] (average of the replicates, probe 15 nM, Kd for probe 290 nM, read-out: Ki [nM] Average) is 475 nM; in experiment [4] (average of the replicates, probe 15 nM, Kd for probe 290 nM, read-out: Ki [µM] Average) it was 475 nM; in experiment [4] (calculated from IC50, Kd for probe 290 nM, probe 15 nM, replicate 1, read-out: Ki), 592 nM; in experiment [4] (calculated from IC50, Kd for probe 290 nM, probe 15 nM, replicate 2, read-out: Ki), 467 nM; in experiment [4] (calculated from IC50, Kd for probe 290 nM, probe 15 nM, replicate 3, read-out: Ki), 471 nM; in experiment [4] (calculated from IC50, Kd for probe 290 nM, probe 15 nM, replicate 4, read-out: Ki), 347 nM. The inhibitory constant (Ki) in experiment [4] (calculated from IC50, Kd for probe 290 nM, probe 15 nM, replicate 5, read-out: Ki) is 449 nM; in experiment [4] (calculated from IC50, Kd for probe 290 nM, probe 15 nM, replicate 6, read-out: Ki), 527 nM.
Consider “GPMGMMEEQGFESLPLSQDSFRELWESVVTPSISTIPPAPEVPQDTMYMMLMNDQVLADGFDEKLFELPPESSTKDGVVPPSST [C.arg p53 P1 full, expressed full-length northern snakehead p53TAD paralog 1]”, for which the IC50 stood at 1.82e-06 M in experiment [5] (setting [6]), 1.47e-06 M in experiment [5] (setting [14]), 1.52e-06 M in experiment [5] (setting [7]) and 1.6e-06 M in experiment [5] (setting [13]). For the same substance, the Kd in experiment [5] (FP displacement of FITC-p53TADhuman^15–26 (15 nM) from MDM2 (1.5 μM), KD from IC50, 20 mM sodium phosphate pH 7.4, 150 mM NaCl, 1 mM TCEP) stood at 100 ± 30 nM. Also, the Ki in experiment [5] (setting [8]) was 98.6 nM; in experiment [5] (setting [9]) it was 98.6 nM; in experiment [5] (setting [10]), 153 nM; in experiment [5] (setting [11]), 65.5 nM; in experiment [5] (setting [12]), 77.8 nM.
“GSQNDSQEFAELWEKNLISIQPPGGGSCWDIINDEEYLPGSFDPN [D.rer p53 P2 longer]” gave an IC50 at MDM2D.rerio SWIB domain of 1.64e-06 M.
